Laboratory results as given in patent publication US20240245673A1, “Papain-like protease (PLpro) inhibitors” (Pfizer Inc., priority 2022, published 2024).

These compounds were tested against SARS-CoV-2 Papain like protease (PLpro) (Severe acute respiratory syndrome coronavirus 2 (2019-nCoV) (SARS-CoV-2), UniProt P0DTD1) (assay: Papain Like Protease (PLpro) biochemical assay with profluorogenic substrate Z-RLRGG-AMC). Conditions: IC50 (μM), SARS-CoV-2 PLpro 6.25 nM, 25 μM Z-RLRGG-AMC substrate, 60 minute reaction.

Structure (SMILES)	IC50 [µM]
Cc1ccc(CN)cc1C(=O)NC(C)c1cc(-n2ccnc2)nc2ccccc12 (centres unmarked) [Example 36, N-(1-(2-(1H-imidazol-1-yl)quinolin-4-yl)ethyl)-5-(aminomethyl)-2-methylbenzamide]	0.21

Same assay, conditions: SARS-CoV-2 PLpro 6.25 nM, 25 μM Z-RLRGG-AMC substrate, 60 minute reaction; read-out: IC50

Structure (SMILES)	IC50 [µM]
Cc1ccccc1C(=O)NC(C)c1cc(CCn2cccn2)nc2ccccc12 (stereo in doubt) [Example 157, 2-methyl-N-[(1R)-1-{2-[2-(1H-pyrazol-1-yl)ethyl]-quinolin-4-yl}ethyl]benzamide]	2.68
Cc1ccccc1C(=O)NC(C)c1cc(CN)nc2ccccc12 (stereo in doubt) [Example 158, N-{(1R)-1-[2-(aminomethyl)quinolin-4-yl]-ethyl}-2-methylbenzamide]	5.48
Cc1ccccc1C(=O)NC(C)c1cc(CC#N)nc2ccccc12 (stereo in doubt) [Example 159, N-{(1R)-1-[2-(cyanomethyl)quinolin-4-yl]-ethyl}-2-methylbenzamide]	1.97
Cc1ccc(C(N)=O)cc1C(=O)NC(C)c1cc(-n2ccnn2)cc2ccccc12 (centres unmarked) [Example 1, N^1-(1-(3-(1H-1,2,3-triazol-1-yl)naphthalen-1-yl)ethyl)-6-methylisophthalamide]	1.79
Cc1ccc(C(N)=O)cc1C(=O)NC(C)c1cc(-n2nccn2)cc2ccccc12 (centres unmarked) [Example 2, N^1-(1-(3-(2H-1,2,3-triazol-2-yl)naphthalen-1-yl)ethyl)-6-methylisophthalamide]	1.37
Cc1ccc(CN)cc1C(=O)NC(C)c1cc(-c2cnn(C)c2)cc2ccccc12 (centres unmarked) [Example 3, 5-(aminomethyl)-2-methyl-N-(1-(3-(1-methyl-1H-pyrazol-4-yl)naphthalen-1-yl)ethyl)benzamide]	0.048
Cc1ccc(NC(=O)[C@H]2CCCCN2)cc1C(=O)NC(C)c1cc(-c2cnn(C)c2)cc2ccccc12 (stereo partly drawn) [Example 4, (2R)—N-(4-methyl-3-((1-(3-(1-methyl-1H-pyrazol-4-yl)naphthalen-1-yl)ethyl)carbamoyl)phenyl)piperidine-2-carboxamide]	0.023
Cc1cc(CN)ccc1C(=O)NC(C)c1cc(-c2cnn(C)c2)cc2ccccc12 (centres unmarked) [Example 5, 4-(aminomethyl)-2-methyl-N-(1-(3-(1-methyl-1H-pyrazol-4-yl)naphthalen-1-yl)ethyl)benzamide]	0.087
Cc1cc(CNCc2ncc[nH]2)ccc1C(=O)NC(C)c1cc(-c2cnn(C)c2)cc2ccccc12 (centres unmarked) [Example 6, 4-((((1H-imidazol-2-yl)methyl)amino)methyl)-2-methyl-N-(1-(3-(1-methyl-1H-pyrazol-4-yl)naphthalen-1-yl)ethyl)benzamide]	0.019
Cc1cc(CNCc2cscn2)ccc1C(=O)NC(C)c1cc(-c2cnn(C)c2)cc2ccccc12 (centres unmarked) [Example 7, 2-methyl-N-(1-(3-(1-methyl-1H-pyrazol-4-yl)naphthalen-1-yl)ethyl)-4-(((thiazol-4-ylmethyl)amino)methyl)benzamide]	0.013
CNCc1ccc(C)c(C(=O)NC(C)c2cc(-c3cnn(C)c3)cc3ccccc23)c1 (centres unmarked) [Example 10, 2-methyl-N-(1-(3-(1-methyl-1H-pyrazol-4-yl)naphthalen-1-yl)ethyl)-5-((methylamino)methyl)benzamide]	0.033
Cc1ccc(CN)cc1C(=O)N[C@H](C)c1cc(-c2cnn(C)c2)nc2ccccc12 [Example 11, (R)-5-(aminomethyl)-2-methyl-N-(1-(2-(1-methyl-1H-pyrazol-4-yl)quinolin-4-yl)ethyl)benzamide]	0.027
Cc1ccccc1C(=O)N[C@H](C)c1cc(-c2ccn(C)n2)nc2ccccc12 [Example 12, (R)-2-methyl-N-(1-(2-(1-methyl-1H-pyrazol-3-yl)quinolin-4-yl)ethyl)benzamide]	0.532
CNCc1ccc(C)c(C(=O)N[C@H](C)c2cc(-c3cnn(C)c3)nc3ccccc23)c1 [Example 13, (R)-2-methyl-N-(1-(2-(1-methyl-1H-pyrazol-4-yl)quinolin-4-yl)ethyl)-5-((methylamino)methyl)benzamide]	0.024
Cc1ccc(NC(=O)[C@H]2CCCCN2)cc1C(=O)N[C@H](C)c1cc(-c2cnn(C)c2)nc2ccccc12 [Example 14, (R)-N-(4-methyl-3-(((R)-1-(2-(1-methyl-1H-pyrazol-4-yl)quinolin-4-yl)ethyl)carbamoyl)phenyl)piperidine-2-carboxamide]	0.019
Cc1ccc(N(C)C(=O)[C@H]2CCCCN2)cc1C(=O)N[C@H](C)c1cc(-c2cnn(C)c2)nc2ccccc12 [Example 15, (R)—N-methyl-N-(4-methyl-3-(((R)-1-(2-(1-methyl-1H-pyrazol-4-yl)quinolin-4-yl)ethyl)carbamoyl)phenyl)piperidine-2-carboxamide]	0.495
Cc1ccc(CN)cc1C(=O)N[C@H](C)c1cc(-n2cnnc2)nc2ccccc12 [Example 16, (R)—N-(1-(2-(4H-1,2,4-triazol-4-yl)quinolin-4-yl)ethyl)-5-(aminomethyl)-2-methylbenzamide]	0.149
CNCc1ccc(C)c(C(=O)N[C@H](C)c2cc(-c3cn[nH]c3)nc3ccccc23)c1 [Example 17, (R)—N-(1-(2-(1H-pyrazol-4-yl)quinolin-4-yl)ethyl)-2-methyl-5-((methylamino)methyl)benzamide]	0.022
Cc1ccc(CN)cc1C(=O)N[C@H](C)c1cc(-c2cn[nH]c2)nc2ccccc12 [Example 18, (R)-N-(1-(2-(1H-pyrazol-4-yl)quinolin-4-yl)ethyl)-5-(aminomethyl)-2-methylbenzamide]	0.027

Structure (SMILES)	IC50 [µM]
COC(=O)c1c[nH]c(-c2cc([C@@H](C)NC(=O)c3cc(CN)ccc3C)c3ccccc3n2)c1 [Example 19, methyl(R)-5-(4-(1-(5-(aminomethyl)-2-methylbenzamido)ethyl)quinolin-2-yl)-1H-pyrrole-3-carboxylate]	0.015
Cc1ccc(CN)cc1C(=O)N[C@H](C)c1cc(-c2cc(C(=O)O)c[nH]2)nc2ccccc12 [Example 20, (R)-5-(4-(1-(5-(aminomethyl)-2-methylbenzamido)ethyl)quinolin-2-yl)-1H-pyrrole-3-carboxylic acid]	0.041
Cc1ccc(CN)cc1C(=O)N[C@H](C)c1cc(-c2cc(C(N)=O)c[nH]2)nc2ccccc12 [Example 21, (R)-5-(4-(1-(5-(aminomethyl)-2-methylbenzamido)ethyl)quinolin-2-yl)-1H-pyrrole-3-carboxamide]	0.016
CNC(=O)c1c[nH]c(-c2cc([C@@H](C)NC(=O)c3cc(CN)ccc3C)c3ccccc3n2)c1 [Example 22, (R)-5-(4-(1-(5-(aminomethyl)-2-methylbenzamido)ethyl)quinolin-2-yl)-N-methyl-1H-pyrrole-3-carboxamide]	0.017
Cc1ccc(CN)cc1C(=O)N[C@H](C)c1cc(-n2ccnn2)nc2ccccc12 [Example 23, (R)—N-(1-(2-(1H-1,2,3-triazol-1-yl)quinolin-4-yl)ethyl)-5-(aminomethyl)-2-methylbenzamide]	0.293
Cc1ccc(CN)cc1C(=O)N[C@H](C)c1cc(-n2cncn2)nc2ccccc12 [Example 24, (R)-N-(1-(2-(1H-1,2,4-triazol-1-yl)quinolin-4-yl)ethyl)-5-(aminomethyl)-2-methylbenzamide]	0.25
Cc1ccc(CN)cc1C(=O)NC(C)c1cc(-n2cc(C(F)(F)F)nn2)nc2ccccc12 (centres unmarked) [Example 31, 5-(aminomethyl)-2-methyl-N-(1-(2-(4-(trifluoromethyl)-1H-1,2,3-triazol-1-yl)quinolin-4-yl)ethyl)benzamide]	0.674
Cc1ccc(CN)cc1C(=O)NC(C)c1cc(-n2ncc(C(F)(F)F)n2)nc2ccccc12 (centres unmarked) [Example 32, 5-(aminomethyl)-2-methyl-N-(1-(2-(4-(trifluoromethyl)-2H-1,2,3-triazol-2-yl)quinolin-4-yl)ethyl)benzamide]	0.676
Cc1ccc(CN)cc1C(=O)NC(C)c1cc(-n2cnnc2C(N)=O)nc2ccccc12 (centres unmarked) [Example 33, 4-(4-(1-(5-(aminomethyl)-2-methylbenzamido)ethyl)quinolin-2-yl)-4H-1,2,4-triazole-3-carboxamide]	1.36
Cc1ccc(CN)cc1C(=O)NC(C)c1cc(N2CCCC2=O)nc2ccccc12 (centres unmarked) [Example 34, 5-(aminomethyl)-2-methyl-N-(1-(2-(2-oxopyrrolidin-1-yl)quinolin-4-yl)ethyl)benzamide]	1.45
Cc1ccc(CN)cc1C(=O)NC(C)c1cc(-n2ccc(C#N)n2)nc2ccccc12 (centres unmarked) [Example 35, 5-(aminomethyl)-N-(1-(2-(3-cyano-1H-pyrazol-1-yl)quinolin-4-yl)ethyl)-2-methylbenzamide]	1.48
Cc1ccccc1C(=O)N[C@H](C)c1cc(NC2COC2)nc2ccccc12 [Example 37, (R)-2-methyl-N-(1-(2-(oxetan-3-ylamino)quinolin-4-yl)ethyl)benzamide]	10
Cc1ccccc1C(=O)N[C@H](C)c1cc(Nc2ccn(C)n2)nc2ccccc12 [Example 38, (R)-2-methyl-N-(1-(2-((1-methyl-1H-pyrazol-3-yl)amino)quinolin-4-yl)ethyl)benzamide]	1.63
Cc1ccccc1C(=O)N[C@H](C)c1cc(N)nc2ccccc12 [Example 39, (R)-N-(1-(2-aminoquinolin-4-yl)ethyl)-2-methylbenzamide]	0.861
CC(=O)Nc1cc([C@@H](C)NC(=O)c2ccccc2C)c2ccccc2n1 [Example 40, (R)—N-(1-(2-acetamidoquinolin-4-yl)ethyl)-2-methylbenzamide]	3.16
CNc1cc([C@@H](C)NC(=O)c2ccccc2C)c2ccccc2n1 [Example 41, (R)-2-methyl-N-(1-(2-(methylamino)quinolin-4-yl)ethyl)benzamide]	1.01
Cc1ccccc1C(=O)N[C@H](C)c1cc(N(C)C)nc2ccccc12 [Example 42, (R)-N-(1-(2-(dimethylamino)quinolin-4-yl)ethyl)-2-methylbenzamide]	2.17
Cc1ccccc1C(=O)N[C@H](C)c1cc(OCC2CCOC2)nc2ccccc12 (stereo partly drawn) [Example 43, 2-methyl-N-((1R)-1-(2-((tetrahydrofuran-3-yl)methoxy)quinolin-4-yl)ethyl)benzamide]	3.08
